Experimental data published in patent publication US20230293404A1, “Compositions Comprising Natural Polymers and One or More (Bio)-Alkanediols” (Symrise AG, priority 2020, published 2023).
Blank lines part the entries; values can stand above or below the compound they belong to.

Assays:
[1] = Maximum solubility of alkanediols in water (visual assessment); assay type: physicochemical; conditions: assessed at ambient temperature after 24 h storage at 5° C.; visual observation
[2] = system: microbial load of natural polymers; assay: Microbial load of mixtures of natural polymers with alkanediols (plating, CFU count); assay type: cell-based, bacteria
Method: The following tests were performed to show the influence of different alkanediols on the microbial load of natural polymers.
A selection of natural polymers as specified in Table 1 was systematically analyzed in combination with different 1,2-alkanediols and 2,3-alkanediols (0.5%). The polymers were chosen to be representative from different polymer classes:
A mixture of the natural polymer (concentration as recommended by supplier) with water and 1,2-alkanediol (0.5%) or 2,3-alkanediol (0.5%) or a mixture of 1,2-alkanediol and 2,3-alkanediol (0.5% final concentration) was prepared, as representative of a cold formulation preparation processes, and directly sampled for determination of microbial load. Additionally, the mixtures were stored at 40° C. and again sampled for microbial load after 2 days and 7 days.
The microbial load of the mixtures was determined by plating 1000 μl (or respective dilutions of the material) on an agar plate based on universal bacterial growth medium (Caseinpepton-Sojamehlpepton-Bouillon, Merck 1.05459+Agar No. 1, Oxoid LP0011). The plates were then incubated at 37° C. for 5 days and then photo documented. In parallel, bacterial colonies were counted (CFU—colony forming units per ml).

[3] = Physical state of alkanediols and alkanediol mixtures at RTP; assay type: physicochemical; conditions: at RTP (room temperature, normal pressure); FIG. 3 and FIG. 4
Excerpt: The term “liquid alkanediol” within the context of the present invention means an alkanediol component which is liquid at room or ambient temperature and under normal pressure, i.e. standard RTP conditions.
FIG. 3 is a photograph showing from left to right samples of the liquid 1,2-pentanediol, 1,2-hexanediol, 1,2-heptanediol, 2,3-heptanediol, 2,3-octanediol and 2,3-undecanediol in comparison to the solid 1,2-octanediol, 1,2-undecanediol, 1,2-nonanediol and the liquid 2,3-nonanediol. The first six alkanediols are liquid at RTP, whereas 1,2-octanediol, 1,2-nonanediol and 1,2-undecanediol are solid substances at RTP; 2,3-nonanediol is also liquid at RTP.
FIG. 4 is a representative photograph of samples of mixtures of 1,2-alkanediols with the respective 2,3-alkanediol. All mixtures are liquid. They are shown in the following order: 1,2-heptanediol (95%)+2,3-heptanediol (5%), 1,2-octanediol (95%)+2,3-octanediol (5%), and 1,2-nonanediol (95%)+2,3-nonanediol (5%).

[4] = Covathick (0.5%) in water + 0.5% 2,3-alkanediol, 2 days storage at 40° C.
[5] = Covathick (0.5%) in water + 0.5% 2,3-alkanediol, 7 days storage at 40° C.
[6] = Covathick (0.5%) in water + 0.5% 2,3-alkanediol, fresh
[7] = Genuvisco (0.5%) in water + 0.5% 2,3-alkanediol, 2 days storage at 40° C.
[8] = Genuvisco (0.5%) in water + 0.5% 2,3-alkanediol, 7 days storage at 40° C.
[9] = Genuvisco (0.5%) in water + 0.5% 2,3-alkanediol, fresh
[10] = Polycos-N 75 (0.5%) in water + 0.5% 2,3-alkanediol, fresh

SMILES: CCCC(O)CO (centres unmarked) [1,2-pentanediol]
Maximum solubility in water [1]: 50 % by weight
Bacterial load (colony forming units) ([2]; Covathick (2009, cellulose 0.5%) in water + 0.5% 1,2-alkanediol, 2 days storage at 40° C.): >13 CFU per ml
Bacterial load (colony forming units) ([2]; Covathick (2009, cellulose 0.5%) in water + 0.5% 1,2-alkanediol, 7 days storage at 40° C.): 4 CFU per ml
Bacterial load (colony forming units) ([2]; Covathick (2009, cellulose 0.5%) in water + 0.5% 1,2-alkanediol, fresh): 84 CFU per ml
Bacterial load (colony forming units) ([2]; Genuvisco (CG-131, carrageenan 0.5%) in water + 0.5% 1,2-alkanediol, 2 days storage at 40° C.): 2800 CFU per ml
Bacterial load (colony forming units) ([2]; Genuvisco (CG-131, carrageenan 0.5%) in water + 0.5% 1,2-alkanediol, 7 days storage at 40° C.): 0 CFU per ml
Bacterial load (colony forming units) ([2]; Genuvisco (CG-131, carrageenan 0.5%) in water + 0.5% 1,2-alkanediol, fresh): 35 CFU per ml
Bacterial load (colony forming units) ([2]; Nativacare (5600, corn starch 3%) in water + 0.5% 1,2-alkanediol, 2 days storage at 40° C.): 27 CFU per ml
Bacterial load (colony forming units) ([2]; Nativacare (5600, corn starch 3%) in water + 0.5% 1,2-alkanediol, 7 days storage at 40° C.): >1000 CFU per ml
Bacterial load (colony forming units) ([2]; Nativacare (5600, corn starch 3%) in water + 0.5% 1,2-alkanediol, fresh): 0 CFU per ml
Bacterial load (colony forming units) ([2]; Polycos-N 75 (guar gum 0.5%) in water + 0.5% 1,2-alkanediol, 7 days storage at 40° C.): 13 CFU per ml
Bacterial load (colony forming units) ([2]; Polycos-N 75 (guar gum 0.5%) in water + 0.5% 1,2-alkanediol, fresh): 13 CFU per ml
Bacterial load (colony forming units) ([2]; Xanthan Gum (Rheocare XGN 0.5%) in water + 0.5% 1,2-alkanediol, fresh): >249 CFU per ml
Physical state [3]: liquid

Physical state [3]: solid
SMILES: CCCCCCCCCC(O)CO (centres unmarked) [1,2-undecanediol]

SMILES: CCCCC(O)C(C)O (centres unmarked) [2,3-heptanediol]
Maximum solubility in water [1]: 3.6 % by weight
Bacterial load (colony forming units) [2, 4]: 0 CFU per mL
Bacterial load (colony forming units) [2, 5]: 0 CFU per mL
Bacterial load (colony forming units) [2, 6]: 5 CFU per mL
Bacterial load (colony forming units) [2, 7]: 1 CFU per mL
Bacterial load (colony forming units) [2, 8]: 1 CFU per mL
Bacterial load (colony forming units) [2, 9]: 5 CFU per mL
Bacterial load (colony forming units) [2, 10]: 2 CFU per mL
Bacterial load (colony forming units) ([2]; Table 4: Covathick (0.5%) in water + alkanediol or mixture, 0.5% total, 2 days storage at 40° C.): 0 CFU per mL
Bacterial load (colony forming units) ([2]; Table 4: Covathick (0.5%) in water + alkanediol or mixture, 0.5% total, 7 days storage at 40° C.): 0 CFU per mL
Bacterial load (colony forming units) ([2]; Table 4: Covathick (0.5%) in water + alkanediol or mixture, 0.5% total, fresh): 5 CFU per mL
Bacterial load (colony forming units) ([2]; Table 4: PolyCos N-75 (0.5%) in water + alkanediol or mixture, 0.5% total, fresh): 2 CFU per mL
Physical state [3]: liquid

Maximum solubility in water [1]: 0.3 % by weight
Physical state [3]: liquid
SMILES: CCCCCCC(O)C(C)O (centres unmarked) [2,3-nonanediol]

SMILES: CCCCCCCCC(O)C(C)O (centres unmarked) [2,3-undecanediol]
Bacterial load (colony forming units) [2, 4]: 0 CFU per mL
Bacterial load (colony forming units) [2, 5]: 0 CFU per mL
Bacterial load (colony forming units) [2, 6]: 0 CFU per mL
Bacterial load (colony forming units) [2, 7]: 0 CFU per mL
Bacterial load (colony forming units) [2, 8]: 0 CFU per mL
Bacterial load (colony forming units) [2, 9]: 0 CFU per mL
Bacterial load (colony forming units) ([2]; Polycos-N 75 (0.5%) in water + 0.5% 2,3-alkanediol, 2 days storage at 40° C.): 0 CFU per mL
Bacterial load (colony forming units) ([2]; Polycos-N 75 (0.5%) in water + 0.5% 2,3-alkanediol, 7 days storage at 40° C.): 0 CFU per mL
Bacterial load (colony forming units) [2, 10]: 0 CFU per mL
Bacterial load (colony forming units) ([2]; Xanthan Gum (0.5%) in water + 0.5% 2,3-alkanediol, 2 days storage at 40° C.): 0 CFU per mL
Bacterial load (colony forming units) ([2]; Xanthan Gum (0.5%) in water + 0.5% 2,3-alkanediol, 7 days storage at 40° C.): 0 CFU per mL
Bacterial load (colony forming units) ([2]; Xanthan Gum (0.5%) in water + 0.5% 2,3-alkanediol, fresh): 0 CFU per mL
Effect on the microbial load of the natural polymer solutions (in words) ([2]; directly after preparation of the mixtures as well as after 7 days storage, Table 3): superior antimicrobial activity
Physical state [3]: liquid
